Patent US5760235A, “Anticoagulant peptide derivatives and pharmaceutical compositions containing the same as well as a process for preparation thereof” (Gyogyszerkutato Intezet Kft., priority 1992, dated 1998)

Key:
[1] = test system: native whole human blood; assay: In vitro whole blood clotting time (WBCT), native human blood; assay type: biochemical; design: unit not given here
Description: (§1) The antithrombin activity of the compounds of general formula (I) was determined by the usual method [Bagdy et al.: Thromb Haemostas 67, 325-330 (1992)] by measuring whole blood clotting time (WBCT), thrombin time (TT) and activated partial thromboplastin time (APTT). The in vitro activity of some compounds of the invention assayed on native human blood (non-anticoagulated clotting) (WBCT) and on citrated blood plasma (TT and APTT) is presented in Table 1.
(§2) ^2 WBCT = whole blood clotting time, TT = thrombin time, APTT =
(§3) activated partial thromboplastin time parameter. The figures represent
(§4) concentrations of the compounds required to double the clotting time of
(§5) native whole human blood or of citrated blood plasma.

[2] = test system: citrated blood plasma; assay: In vitro thrombin time (TT), citrated blood plasma; assay type: biochemical, human; design: unit not given here
Description: as §1, §2, §3, §4, §5

[3] = test system: citrated blood plasma; assay: In vitro activated partial thromboplastin time (APTT), citrated blood plasma; assay type: biochemical, human; design: unit not given here
Description: as §1, §2, §3, §4, §5

[4] = test system: fibrinolysis induced by tissue plasminogen activator; assay: Fibrinolysis induced by tissue plasminogen activator, thromboelastogram; assay type: biochemical
Source text: The compounds of the general formula (I) inhibit clot formation without interfering with the natural lysis of blood clots in the body, e.g. fibrinolysis. […] Thromboelastography. In: Bang N. U., F. K. Beller, E. Deutsch, E. F. Mamman eds. Thrombosis and Bleeding Disorders. Theory and Methods. Academic Press, London, 1971: 70-76].

## N=C(N)NCCC[C@@H](C=O)NC(=O)[C@H]1CCCN1C(=O)C(O)c1ccccc1.N=C(N)NCCC[C@@H](C=O)NC(=O)[C@H]1CCCN1C(=O)C(O)c1ccccc1.O=S(=O)(O)O (stereo partly drawn) [Example 6, D-2-Phenyl-2-hydroxyacetyl-L-prolyl-L-arginine aldehyde hemisulfate]
[1]
  WBCT: concentration required to double the clotting time: 0.45
[2]
  TT: concentration required to double the clotting time: 0.040
[3]
  APTT: concentration required to double the clotting time: 0.15
[4]
  inhibitory effect on fibrinolysis induced by tissue plasminogen activator: only negligible inhibitory effect

## N=C(N)NCCC[C@@H](C=O)NC(=O)[C@H]1CCCN1C(=O)C(O)c1ccc2ccccc2c1.N=C(N)NCCC[C@@H](C=O)NC(=O)[C@H]1CCCN1C(=O)C(O)c1ccc2ccccc2c1.O=S(=O)(O)O (stereo partly drawn) [Example 13, D-2-(2-Naphthyl)-2-hydroxyacetyl-L-prolyl-L-arginine aldehyde hemisulfate]
[1]
  WBCT: concentration required to double the clotting time: 1.13
[2]
  TT: concentration required to double the clotting time: 0.100
[3]
  APTT: concentration required to double the clotting time: 1.00

## N=C(N)NCCC[C@@H](C=O)NC(=O)[C@H]1CCCN1C(=O)C(O)C1CCCCC1.N=C(N)NCCC[C@@H](C=O)NC(=O)[C@H]1CCCN1C(=O)C(O)C1CCCCC1.O=S(=O)(O)O (stereo partly drawn) [Example 8, D-2-Cyclohexyl-2-hydroxyacetyl-L-prolyl-L-arginine aldehyde hemisulfate]
[1]
  WBCT: concentration required to double the clotting time: 0.72
[2]
  TT: concentration required to double the clotting time: 0.100
[3]
  APTT: concentration required to double the clotting time: 0.35
[4]
  inhibitory effect on fibrinolysis induced by tissue plasminogen activator: only negligible inhibitory effect
